Values after ≈ are worked out from the molar mass of the structure shown.
Key:
[1] = Solubility of compound at pH 7 buffer; type: physicochemical
[2] = Tmax in Harlan nu/nu mouse at 10 mg/kg, po administered as single dose by LC-MS/MS analysis; type: ADME, organism-based; details: in vivo
[3] = AUC (infinity) in Harlan nu/nu mouse at 10 mg/kg, po administered as single dose by LC-MS/MS analysis; type: ADME, organism-based; design: dose 10 mg/kg, route oral, time infinity; details: in vivo
[4] = Cmax in Sprague-Dawley rat at 10 mg/kg, iv administered as single dose by LC-MS/MS analysis; type: ADME, organism-based; design: dose 10 mg/kg, route intravenous; details: in vivo
[5] = AUC (infinity) in Sprague-Dawley rat at 10 mg/kg, iv administered as single dose by LC-MS/MS analysis; type: ADME, organism-based; design: dose 10 mg/kg, time infinity, route intravenous; details: in vivo
[6] = Cmax in Sprague-Dawley rat at 10 mg/kg, po administered as single dose by LC-MS/MS analysis; type: ADME, organism-based; design: dose 10 mg/kg, route oral; details: in vivo
[7] = Half life in Sprague-Dawley rat at 10 mg/kg, po administered as single dose by LC-MS/MS analysis; type: ADME, organism-based; details: in vivo
[8] = Oral bioavailability in Sprague-Dawley rat at 10 mg/kg administered as single dose by LC-MS/MS analysis; type: ADME, organism-based; details: in vivo
[9] = AUC (infinity) in Beagle dog at 10 mg/kg, iv administered as single dose by LC-MS/MS analysis; type: ADME, organism-based, Canis lupus familiaris; design: dose 10 mg/kg, route intravenous, time infinity; details: in vivo
[10] = Cmax in Beagle dog at 10 mg/kg, po administered as single dose by LC-MS/MS analysis; type: ADME, organism-based, Canis lupus familiaris; design: dose 10 mg/kg, route oral; details: in vivo
[11] = Tmax in Beagle dog at 10 mg/kg, po administered as single dose by LC-MS/MS analysis; type: ADME, organism-based, Canis lupus familiaris; details: in vivo
[12] = AUC (infinity) in Beagle dog at 10 mg/kg, po administered as single dose by LC-MS/MS analysis; type: ADME, organism-based, Canis lupus familiaris; design: dose 10 mg/kg, time infinity, route oral; details: in vivo
[13] = Antiproliferative activity against human SU-DHL1 cells expressing ALK protein incubated for 72 hrs by cell titer-glo assay; type: functional, cell-based; details: SU-DHL-1, 72 h
[14] = Antiproliferative activity against human SR786 cells expressing ALK protein incubated for 72 hrs by cell titer-glo assay; type: functional, cell-based; details: SR-786, 72 h
[15] = target: Tyrosine-protein kinase JAK2 (Homo sapiens, UniProt O60674); test: Inhibition of JAK2 (unknown origin) in presence of gamma33-ATP
[16] = target: T1, Tyrosine-protein kinase JAK3 (Homo sapiens, UniProt P52333); test: Inhibition of JAK3 (unknown origin) in presence of gamma33-ATP
T1 sequence (P52333 whole entry): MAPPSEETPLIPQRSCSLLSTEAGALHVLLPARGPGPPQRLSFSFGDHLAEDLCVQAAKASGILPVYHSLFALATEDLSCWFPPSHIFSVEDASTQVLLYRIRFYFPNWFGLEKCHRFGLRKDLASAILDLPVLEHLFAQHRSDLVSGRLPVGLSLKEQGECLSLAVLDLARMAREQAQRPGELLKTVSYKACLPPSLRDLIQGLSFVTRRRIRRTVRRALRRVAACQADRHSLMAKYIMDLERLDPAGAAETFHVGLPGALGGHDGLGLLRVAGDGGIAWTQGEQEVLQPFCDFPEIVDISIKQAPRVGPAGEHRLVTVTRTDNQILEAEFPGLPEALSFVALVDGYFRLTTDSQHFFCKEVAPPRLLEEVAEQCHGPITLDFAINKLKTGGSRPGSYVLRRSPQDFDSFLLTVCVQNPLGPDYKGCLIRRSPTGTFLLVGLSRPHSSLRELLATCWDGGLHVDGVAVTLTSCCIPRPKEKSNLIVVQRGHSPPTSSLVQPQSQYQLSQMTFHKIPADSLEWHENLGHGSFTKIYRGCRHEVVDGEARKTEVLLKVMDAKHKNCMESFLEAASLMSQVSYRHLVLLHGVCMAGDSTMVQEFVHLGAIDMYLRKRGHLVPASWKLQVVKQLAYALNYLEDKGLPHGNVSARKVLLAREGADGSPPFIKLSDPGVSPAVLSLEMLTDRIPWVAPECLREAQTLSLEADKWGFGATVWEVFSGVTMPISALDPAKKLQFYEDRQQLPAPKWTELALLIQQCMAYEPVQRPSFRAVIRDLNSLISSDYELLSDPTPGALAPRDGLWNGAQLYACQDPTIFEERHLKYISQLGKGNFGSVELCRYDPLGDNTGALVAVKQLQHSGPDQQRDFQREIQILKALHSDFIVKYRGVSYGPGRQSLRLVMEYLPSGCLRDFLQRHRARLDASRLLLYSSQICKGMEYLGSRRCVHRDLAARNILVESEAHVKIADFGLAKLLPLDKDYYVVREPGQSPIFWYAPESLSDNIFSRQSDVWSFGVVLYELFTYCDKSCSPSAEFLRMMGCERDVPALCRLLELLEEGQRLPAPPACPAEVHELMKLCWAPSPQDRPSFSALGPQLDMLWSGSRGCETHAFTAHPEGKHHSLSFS

[17] = target: Mast/stem cell growth factor receptor Kit (Homo sapiens, UniProt P10721); test: Inhibition of KIT (unknown origin) in presence of gamma33-ATP
[18] = target: Serine/threonine-protein kinase NIM1 (Homo sapiens, UniProt Q8IY84); test: Inhibition of NIM1 (unknown origin) in presence of gamma33-ATP
[19] = target: T2, 3-phosphoinositide-dependent protein kinase 1 (Homo sapiens, UniProt O15530); test: Inhibition of PDK1 (unknown origin) in presence of gamma33-ATP
T2 sequence (O15530 whole entry): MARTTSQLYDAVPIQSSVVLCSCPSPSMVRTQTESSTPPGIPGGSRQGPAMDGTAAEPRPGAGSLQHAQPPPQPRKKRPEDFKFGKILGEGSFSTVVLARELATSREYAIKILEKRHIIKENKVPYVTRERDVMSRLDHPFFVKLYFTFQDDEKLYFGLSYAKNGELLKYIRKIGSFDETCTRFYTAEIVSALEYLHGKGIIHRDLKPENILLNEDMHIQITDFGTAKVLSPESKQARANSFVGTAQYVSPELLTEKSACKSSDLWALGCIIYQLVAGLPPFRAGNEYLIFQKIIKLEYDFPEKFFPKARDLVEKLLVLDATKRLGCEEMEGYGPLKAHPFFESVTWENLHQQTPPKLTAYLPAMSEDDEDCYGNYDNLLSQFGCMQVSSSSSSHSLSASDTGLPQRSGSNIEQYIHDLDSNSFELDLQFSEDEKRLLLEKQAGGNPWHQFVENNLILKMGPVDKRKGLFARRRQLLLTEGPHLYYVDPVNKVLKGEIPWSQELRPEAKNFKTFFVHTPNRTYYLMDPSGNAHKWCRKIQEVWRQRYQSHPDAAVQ

[20] = Plasma concentration in Harlan nu/nu mouse at 240 mg/kg, po administered per day for 2 weeks measured 6 hrs post last dose by LC-MS/MS analysis; type: ADME, organism-based
[21] = test system: Mus musculus; test: Toxicity in SCID mouse xenografted with human KARPAS299 cells assessed as body weight loss at 30 to 60 mg/kg, po bid administered for 10 days; type: organism-based, KARPAS-299; details: in vivo, 240 h

Chain of Serine/threonine-protein kinase NIM1 (Q8IY84 whole entry): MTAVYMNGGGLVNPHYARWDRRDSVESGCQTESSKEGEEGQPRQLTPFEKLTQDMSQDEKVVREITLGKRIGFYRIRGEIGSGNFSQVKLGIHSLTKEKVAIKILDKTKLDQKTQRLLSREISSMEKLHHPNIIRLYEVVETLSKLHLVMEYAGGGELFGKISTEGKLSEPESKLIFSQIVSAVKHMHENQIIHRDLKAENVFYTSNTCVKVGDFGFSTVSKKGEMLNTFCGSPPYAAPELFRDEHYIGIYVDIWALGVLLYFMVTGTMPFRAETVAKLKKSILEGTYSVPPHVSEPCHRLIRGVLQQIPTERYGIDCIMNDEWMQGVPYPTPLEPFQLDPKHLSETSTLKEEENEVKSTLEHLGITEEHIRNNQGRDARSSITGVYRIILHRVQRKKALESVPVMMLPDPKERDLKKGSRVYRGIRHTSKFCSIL
Chain of Tyrosine-protein kinase JAK2 (O60674 whole entry): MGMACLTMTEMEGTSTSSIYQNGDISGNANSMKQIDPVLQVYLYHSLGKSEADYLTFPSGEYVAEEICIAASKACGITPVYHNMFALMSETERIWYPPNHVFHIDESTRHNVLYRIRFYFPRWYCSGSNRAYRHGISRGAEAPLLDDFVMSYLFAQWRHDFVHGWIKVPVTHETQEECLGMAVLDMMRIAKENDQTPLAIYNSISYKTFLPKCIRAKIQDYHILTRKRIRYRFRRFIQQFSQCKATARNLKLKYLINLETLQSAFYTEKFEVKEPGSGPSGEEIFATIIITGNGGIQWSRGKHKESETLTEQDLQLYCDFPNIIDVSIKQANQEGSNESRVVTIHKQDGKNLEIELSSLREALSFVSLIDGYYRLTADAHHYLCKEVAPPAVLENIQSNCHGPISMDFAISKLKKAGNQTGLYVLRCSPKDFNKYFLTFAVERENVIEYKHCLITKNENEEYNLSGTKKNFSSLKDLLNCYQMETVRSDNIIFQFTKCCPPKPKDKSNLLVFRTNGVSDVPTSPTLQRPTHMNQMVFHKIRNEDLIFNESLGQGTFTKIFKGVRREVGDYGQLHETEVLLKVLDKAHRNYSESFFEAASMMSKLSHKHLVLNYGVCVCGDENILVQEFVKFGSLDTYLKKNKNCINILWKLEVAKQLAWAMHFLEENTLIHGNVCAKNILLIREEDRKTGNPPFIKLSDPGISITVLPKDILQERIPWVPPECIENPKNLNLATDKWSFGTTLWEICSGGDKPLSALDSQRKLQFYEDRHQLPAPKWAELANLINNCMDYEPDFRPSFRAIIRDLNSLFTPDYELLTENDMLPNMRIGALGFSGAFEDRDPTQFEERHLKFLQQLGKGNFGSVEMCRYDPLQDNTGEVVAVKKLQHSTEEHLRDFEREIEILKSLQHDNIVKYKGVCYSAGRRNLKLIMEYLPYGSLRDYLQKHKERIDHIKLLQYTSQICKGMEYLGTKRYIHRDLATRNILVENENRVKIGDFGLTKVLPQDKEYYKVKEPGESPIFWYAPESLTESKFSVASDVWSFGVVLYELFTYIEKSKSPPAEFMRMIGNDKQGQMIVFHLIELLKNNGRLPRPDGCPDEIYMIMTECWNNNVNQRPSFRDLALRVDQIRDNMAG
Chain of Mast/stem cell growth factor receptor Kit (P10721 whole entry): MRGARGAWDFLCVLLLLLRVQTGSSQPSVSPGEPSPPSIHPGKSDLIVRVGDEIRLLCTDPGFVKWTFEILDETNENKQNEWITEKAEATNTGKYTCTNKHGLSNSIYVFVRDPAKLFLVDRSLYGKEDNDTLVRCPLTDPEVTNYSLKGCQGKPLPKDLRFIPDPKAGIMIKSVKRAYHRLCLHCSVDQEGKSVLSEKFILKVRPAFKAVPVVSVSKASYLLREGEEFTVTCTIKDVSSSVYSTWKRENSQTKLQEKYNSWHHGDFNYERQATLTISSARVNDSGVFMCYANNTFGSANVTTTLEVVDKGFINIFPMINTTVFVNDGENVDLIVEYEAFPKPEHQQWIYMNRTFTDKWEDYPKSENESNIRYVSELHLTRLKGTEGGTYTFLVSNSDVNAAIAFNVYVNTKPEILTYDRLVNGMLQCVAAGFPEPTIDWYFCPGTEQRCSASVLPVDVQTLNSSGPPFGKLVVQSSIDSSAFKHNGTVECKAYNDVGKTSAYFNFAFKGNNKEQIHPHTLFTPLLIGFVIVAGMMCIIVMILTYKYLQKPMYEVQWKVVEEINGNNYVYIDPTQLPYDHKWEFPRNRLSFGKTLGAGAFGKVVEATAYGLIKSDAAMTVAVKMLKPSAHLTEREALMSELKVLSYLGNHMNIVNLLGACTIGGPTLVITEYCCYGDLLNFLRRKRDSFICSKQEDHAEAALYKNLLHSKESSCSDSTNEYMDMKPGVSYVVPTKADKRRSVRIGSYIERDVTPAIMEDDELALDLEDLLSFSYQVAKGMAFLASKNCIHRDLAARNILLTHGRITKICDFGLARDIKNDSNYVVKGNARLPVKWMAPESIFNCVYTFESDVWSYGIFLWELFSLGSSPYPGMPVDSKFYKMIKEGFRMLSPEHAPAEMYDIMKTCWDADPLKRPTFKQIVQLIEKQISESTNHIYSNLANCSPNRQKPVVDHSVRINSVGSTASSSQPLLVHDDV

- solubility [1]: 20 µM (≈ 11.2 µg/mL)
- Tmax [2]: 2.5 h
- AUC(0-inf) [3]: 17.4 µM·h
- Cmax [4]: 11000 nM
- AUC(0-inf) [5]: 15.1 µM·h
- Cmax [6]: 500 nM
- half-life [7]: 3.8 h
- bioavailability [8]: 43%
- AUC(0-inf) [9]: 17.6 µM·h
- Cmax [10]: 600 nM
- Tmax [11]: 2 h
- AUC(0-inf) [12]: 5.7 µM·h
- IC50 [15]: 40 nM
- IC50 [16]: 349 nM
- IC50 [17]: > 1000 nM
- IC50 [18]: > 10000 nM
- IC50 [19]: > 10000 nM
- concentration at 6 h [20]: 4570 nM
Compound: CN1CCN(c2ccc(C(=O)Nc3n[nH]c4ccc(Cc5cc(F)cc(F)c5)cc34)c(NC3CCOCC3)c2)CC1 [ENTRECTINIB]
- IC50 [13]: 24 nM
- IC50 [14]: 81 nM
- Activity [21]: Non-toxic

From ChEMBL document CHEMBL3804811 (J Med Chem, 2016)
